Measured values published in patent US8263651B2, “Use of cis-epoxyeicosatrienoic acids and inhibitors of soluble epoxide hydrolase to treat conditions mediated by PBR, CB2, and NK2 receptors” (The Regents of the University of California, priority 2006, dated 2012).
“Also recorded” adds a separate entry of the source. Where two headings read alike, the source gives them in different places.

Columns and labels:
BZD (peripheral) = biological target: T1, BZD (peripheral) (Rattus norvegicus, UniProt P16257); experiment: radio-ligand binding competition, peripheral benzodiazepine receptor ([3H]PK 11195); conditions: for IC50: displacement of [3H]PK 11195; for inhibition of binding of [3H]PK 11195 (FIG. 1): increasing concentrations; for % Inhibition of Control Specific Binding: second round, individual EET isomers, 3 μM
T1 construct: containing 0.2 mg of cardiac membrane protein and the radioactive ligand; tissue CEREP (contract assay); host or cells: rat heart ventricular membranes

Cannabinoid CB2 = biological target: T2, Cannabinoid CB2 (Homo sapiens, UniProt P34972); experiment: radio-ligand binding competition, CB2 ([3H]WIN 55212-2); conditions: for % Inhibition of Control Specific Binding: individual EET isomers, 3 μM
T2 construct: host or cells: CHO cells
T2 sequence (P34972 whole entry): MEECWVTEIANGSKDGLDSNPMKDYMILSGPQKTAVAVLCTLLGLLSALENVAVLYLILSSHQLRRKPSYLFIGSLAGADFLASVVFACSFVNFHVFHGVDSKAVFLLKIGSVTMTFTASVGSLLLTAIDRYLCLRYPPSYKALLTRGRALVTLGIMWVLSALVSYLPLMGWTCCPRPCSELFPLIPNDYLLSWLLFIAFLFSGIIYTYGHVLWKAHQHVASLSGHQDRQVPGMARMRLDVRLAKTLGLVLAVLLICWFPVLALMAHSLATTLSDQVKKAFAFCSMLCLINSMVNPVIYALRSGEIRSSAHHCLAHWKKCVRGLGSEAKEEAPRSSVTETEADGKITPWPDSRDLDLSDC

Dopamine D3 = Dopamine D3 (Homo sapiens, UniProt P35462); experiment: radio-ligand binding competition, D3; conditions: for IC50: displacement of high affinity ligand; for % Inhibition of Control Specific Binding: second round, individual EET isomers, 3 μM
Dopamine D3, sequence (P35462 whole entry): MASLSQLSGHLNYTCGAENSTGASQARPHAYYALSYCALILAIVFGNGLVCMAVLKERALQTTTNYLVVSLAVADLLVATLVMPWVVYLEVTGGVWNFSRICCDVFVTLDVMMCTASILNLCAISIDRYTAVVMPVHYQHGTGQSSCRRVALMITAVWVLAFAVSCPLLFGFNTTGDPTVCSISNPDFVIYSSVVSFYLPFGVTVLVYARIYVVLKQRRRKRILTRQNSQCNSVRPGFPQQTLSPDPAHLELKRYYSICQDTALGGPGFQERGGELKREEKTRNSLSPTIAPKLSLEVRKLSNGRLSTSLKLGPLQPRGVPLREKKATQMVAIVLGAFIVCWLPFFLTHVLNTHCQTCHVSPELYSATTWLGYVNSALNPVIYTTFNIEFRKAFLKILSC

Neurokinin NK2 = biological target: T3, Neurokinin NK2 (Homo sapiens, UniProt P21452); experiment: radio-ligand binding competition, NK2; conditions: for IC50: displacement of high affinity ligand; for % Inhibition of Control Specific Binding: second round, individual EET isomers, 3 μM
T3 sequence (P21452 1-398): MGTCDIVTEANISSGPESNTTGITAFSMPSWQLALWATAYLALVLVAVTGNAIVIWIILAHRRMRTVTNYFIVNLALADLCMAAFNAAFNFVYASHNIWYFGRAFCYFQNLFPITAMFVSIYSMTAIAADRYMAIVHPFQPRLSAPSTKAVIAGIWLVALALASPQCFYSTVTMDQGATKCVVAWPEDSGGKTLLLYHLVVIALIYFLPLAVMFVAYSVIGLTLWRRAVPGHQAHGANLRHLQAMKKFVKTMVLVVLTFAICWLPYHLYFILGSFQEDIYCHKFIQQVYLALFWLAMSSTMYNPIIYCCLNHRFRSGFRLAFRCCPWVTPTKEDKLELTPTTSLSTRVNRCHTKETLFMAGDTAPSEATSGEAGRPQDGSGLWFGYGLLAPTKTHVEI

[1] = tested on: LPS-elicited thermal hyperalgesia; experiment: LPS-elicited inflammatory pain model, hindpaw thermal withdrawal latency; format: in vivo, rat; conditions: for effect on response to LPS administration: agent + LPS, no sEHI (FIG. 2D); for effect on baseline TWL response: agent by itself, no LPS (FIG. 2C); for effect on the antihyperalgesic action of sEHI AEPU: topical, with LPS + AEPU (FIGS. 2A, 2B, 4); for effect on sEHI-elicited analgesia: with LPS + sEHI compound 950, two hours post LPS (FIG. 5)
Method: Inflammatory pain model: The nociception response was measured using the hind paw withdrawal latency test modified after Hargreaves at al., Pain, 32(1):77-88 (1988). Male Sprague-Dowley rats weighing 240-260 g, are individually housed at UC Davis Animal Resource Facility under standard conditions with free access to food and water, and maintained for at least 1 week before the experiments. On the day of the experiments, the animals' basal response is measured and then compounds are topically administered preceding an injection with 10 ug of endotoxin (1Lipopolysaccharide, “LPS”, Sigma-Aldrich, St. Louis, Mo.). Nociceptive response is then measured at 120 minutes post-LPS injection. Compounds are formulated by dissolving them in ethanol and mixing with cream in a ratio of 1:8. Eight animals per group are used. A dose response curve is obtained by administering increasing concentrations of EETs and measuring nociceptive response.
Behavioral nociceptive testing was conducted by assessing thermal hindpaw withdrawal latencies (“TWL”) using a commercial Hargreaves (Hargreaves et al., A new and sensitive method for measuring thermal nociception in cutaneous hyperalgesia. Pain 32:77-88 (1988)) apparatus (IITC Life Science Inc., Woodland Hills, Calif.). Male Sprague-Dawley rats weighing 240-250 g, were individually housed at the UC Davis Animal Resource Facility under standard conditions with free access to food and water, and maintained for at least 1 week before the experiments. On the day of the experiment, the rats were transferred to a quiet room, acclimated for 1 h, and their baseline responses measured. In pilot experiments, the intensity of the thermal stimulus was set to produce a baseline TWL of 7-8 s. Following baseline measurements, rats were first treated with 200 μl of vehicle or compound-formulated cream by topical application to one hind paw. Compounds (including sEHI, steroid synthesis inhibitors, steroid receptor antagonists, and cannabinoid receptor antagonists, as shown in the Figure legends) were formulated by dissolving them in ethanol and mixing with Vanicream® (Pharmaceutical Specialties, Inc., Rochester, Minn.) in a ratio of 1:9. The cream was thoroughly massaged across the entire hind paw surface over a 2 min period. After 1.5 hours rats were treated with 200 μl of sEHI formulated cream. Within 10 min of sEHI application, lipopolysaccharide (“LPS”, 10 μg in 50 μl 0.9% NaCl) was injected subcutaneously into the plantar surface of the treated paw. Immediately following LPS injection, animals were placed in acrylic chambers on a glass platform maintained at a temperature of 30±1° C. for TWL-measurement. During TWL measurement, a beam of radiant heat was focused onto the mid-portion of the plantar surface of the treated hind paw until the rat moved its stimulated hindpaw abruptly away from the heat stimulus. The duration of heat application necessary to elicit a withdrawal was designated as TWL. A maximum stimulus duration of 22 s was imposed to prevent tissue damage. Five TWL measurements were taken at 3-4 min interstimulus intervals for each of the time points following treatment. The three median TWLs were averaged for each animal at each time point.

[2] = metabolomic analysis of oxylipids and prostaglandins in LPS-treated animals; format: in vivo
Text: (In FIG. 3A, the bar presenting the results for the metabolite 6-keto-PGF1a for one group of animals exceeded the scale, as shown by a break in the bar and the statement of the result in ng/mL about the bar). FIG. 3A. […] FIG. 3C. […] All three graphs: bars with lines rising from left to right (e.g., in FIG. 3A, the “sum of DHETs”) present results for untreated (naïve) animals, bars with lines falling from left to right present results for animals treated with LPS, bars with cross-hatching present results for the animals treated with LPS and the sEH inhibitor AEPU, and bars with horizontal lines present the results for animals treated with LPS, AEPU, and the steroid synthesis inhibitor aminogluthetimide (“AGL”). The metabolites chosen for study show the effect on different pathways by which arachidonic acid is metabolized. ΣEpOMEs and ΣDiHOMEs are indicators of the P450 pathway, HETEs are an indicator of how much arachidonic acid is going through the 5-lipoxygenase pathway and 6-keto-PGF1a, and PGE2 are indicators of the arachidonic acid metabolized by the cyclooxygenase pathway. 6-keto-PGF1a and TXB2 are stable metabolites of PGI2 and thromboxane A2 which have been implicated in increased risk for stroke and heart attack. HODEs are lipoxygenase-derived fatty acid metabolites.
See, FIG. 3. This means that inhibition of sEH is not only effective against inflammatory pain but also effective in other types of pain that are not necessarily modulated by prostanoid levels. Indeed, non-inflammatory types of pain are known to be not well addressed by COX inhibitors. The levels of EETs and DHETs, however, correlated well with the nociceptive end result.

CB2 over CB1 = conditions: cited from earlier work
[3] = tested on: CAR induced local thermal hyperalgesia; experiment: carrageenan-induced thermal hyperalgesia model; format: in vivo; conditions: topical, 20 hours post 2% carrageenan
Method: Using a second distinct inflammatory model, hyperalgesia was induced by intraplantar injection of 2% carrageenan (CAR) and sEH inhibitors were again delivered topically 20 hours post CAR injection.

[4] = displacement of high affinity ligand, read-out: IC50, CB2
[5] = AGL+AEPU vs AEPU-administered animals

CCCCC/C=C\C/C=C\C/C=C\CC1OC1CCCC(=O)OC (stereo not shown) [5,6 EET-me]
IC50 (BZD (peripheral)): 12 µM | IC50 (Cannabinoid CB2; [4]): 20 µM | IC50 (Dopamine D3): > 100 µM | IC50 (Neurokinin NK2): 36 µM

CCCCC/C=C\C/C=C\C/C=C\CC1OC1CCCC(=O)O (stereo not shown) [5,6-EET]
inhibition of binding of [3H]PK 11195 (FIG. 1) (BZD (peripheral)): completely inhibit | % Inhibition of Control Specific Binding (BZD (peripheral)): 27% | % Inhibition of Control Specific Binding (Cannabinoid CB2; second round): 25% | % Inhibition of Control Specific Binding (Dopamine D3): 18% | % Inhibition of Control Specific Binding (Neurokinin NK2): 25%

CCCCC/C=C\C/C=C\CC1OC1C/C=C\CCCC(=O)OC (stereo not shown) [8,9 EET-me]
IC50 (BZD (peripheral)): > 100 µM | IC50 (Cannabinoid CB2; [4]): > 100 µM | IC50 (Dopamine D3): > 100 µM | IC50 (Neurokinin NK2): > 100 µM

CCCCC/C=C\C/C=C\CC1OC1C/C=C\CCCC(=O)O (stereo not shown) [8,9-EET]
% Inhibition of Control Specific Binding (BZD (peripheral)): 11% | % Inhibition of Control Specific Binding (Cannabinoid CB2; second round): −2% | % Inhibition of Control Specific Binding (Dopamine D3): 9% | % Inhibition of Control Specific Binding (Neurokinin NK2): 10%

CCCCC/C=C\CC1OC1C/C=C\C/C=C\CCCC(=O)OC (stereo not shown) [11,12 EET-me]
IC50 (BZD (peripheral)): 140 µM | IC50 (Cannabinoid CB2; [4]): > 100 µM | IC50 (Dopamine D3): > 100 µM | IC50 (Neurokinin NK2): > 100 µM

CCCCC/C=C\C[C@H]1O[C@H]1C/C=C\C/C=C\CCCC(=O)O [11,12-EET]
inhibition of binding of [3H]PK 11195 (FIG. 1) (BZD (peripheral)): completely inhibit | % Inhibition of Control Specific Binding (BZD (peripheral)): 28% | % Inhibition of Control Specific Binding (Cannabinoid CB2; second round): 3% | % Inhibition of Control Specific Binding (Dopamine D3): 6% | % Inhibition of Control Specific Binding (Neurokinin NK2): 1%

CCCCCC1OC1C/C=C\C/C=C\C/C=C\CCCC(=O)OC (stereo not shown) [14,15 EET-me]
IC50 (BZD (peripheral)): 12 µM | IC50 (Cannabinoid CB2; [4]): > 100 µM | IC50 (Dopamine D3): > 100 µM | IC50 (Neurokinin NK2): > 100 µM

CCCCCC1OC1C/C=C\C/C=C\C/C=C\CCCC(=O)O (stereo not shown) [14,15-EET]
inhibition of binding of [3H]PK 11195 (FIG. 1) (BZD (peripheral)): completely inhibit | % Inhibition of Control Specific Binding (BZD (peripheral)): 45% | % Inhibition of Control Specific Binding (Cannabinoid CB2; second round): 5% | % Inhibition of Control Specific Binding (Dopamine D3): 10% | % Inhibition of Control Specific Binding (Neurokinin NK2): 8%

CCC1(c2ccc(N)cc2)CCC(=O)NC1=O (stereo not shown) [AGL]
effect on response to LPS administration [1]: do not they modify | effect on baseline TWL response [1]: no impact | effect on the antihyperalgesic action of sEHI AEPU [1]: completely blocked; also recorded: clearly hyperalgesic | levels of DHETs [2, 5]: increased | levels of EETs [2, 5]: significantly reduced | PGE2 levels ([2]; AGL+LPS+AEPU vs AEPU+LPS or LPS only (FIG. 3)): significantly lower

Cc1c(C(=O)NN2CCCCC2)nn(-c2ccc(Cl)cc2Cl)c1-c1ccc(I)cc1 [AM251, N-(piperidin-1-yl)-5-(4-iodophenyl)-1-(2,4-dichlorophenyl)-4-methy 1-1H-pyrazole-3-carboxamide]
effect on sEHI-elicited analgesia [1]: did not block

COc1ccc(C(=O)c2c(C)n(CCN3CCOCC3)c3cc(I)ccc23)cc1 [AM630, iodopravadoline]
effect on sEHI-elicited analgesia [1]: completely blocked

CN1CCCCC1Cn1cc(C(=O)c2cc([N+](=O)[O-])ccc2I)c2ccccc21 (stereo not shown) [AM1241]
selectivity for CB2 over CB1 (CB2 over CB1): 340 fold

CCCCOC(=O)CCCCCCCCCCCNC(=O)NC12CC3CC(CC(C3)C1)C2 [AUDA-be, 12-(3-Adamantan-1-yl-ureido)dodecanoic acid butyl ester]
attenuation of LPS-elicited thermal hyperalgesia ([1]; topical administration): prophylactic effect | effect on CAR induced thermal hyperalgesia [3]: blocked CAR induced local thermal hyperalgesia effectively; also recorded: effective therapeutically in reversing thermal hyperalgesia

CC(C)(C)NC(=O)[C@H]1CC[C@H]2[C@@H]3CC[C@H]4NC(=O)C=C[C@]4(C)[C@H]3CC[C@]12C [Finasteride]
effect on response to LPS administration [1]: do not they modify | effect on baseline TWL response [1]: no impact | effect on the antihyperalgesic action of sEHI AEPU [1]: blocked

Cc1c(C(=O)c2cccc3ccccc23)c2cccc3c2n1C(CN1CCOCC1)CC3=O (stereo not shown) [WIN55212-2, 4,5-dihydro-2-methyl-4(4-morpholinylmethyl)-1-(1-naphthalenylcarbonyl)-6H-pyrrolo[3,2,1ij]quinolin-6-one, reference compound]
IC50 (Cannabinoid CB2; reference compound, first round, read-out: IC50 Ref (affinity of reference compound)): 0.0076 µM | IC50 (Cannabinoid CB2; reference compound, second round, read-out: IC50 Ref): 0.0027 µM

CC#C[C@]1(O)CC[C@H]2[C@@H]3CCC4=CC(=O)CCC4=C3[C@@H](c3ccc(N(C)C)cc3)C[C@@]21C [mifepristone]
effect on the antihyperalgesic action of sEHI AEPU [1]: did not have any impact

CC1(C)NC(=O)N(c2ccc([N+](=O)[O-])c(C(F)(F)F)c2)C1=O [nilutamide]
effect on the antihyperalgesic action of sEHI AEPU [1]: did not have any impact

CC(=O)S[C@@H]1CC2=CC(=O)CC[C@]2(C)[C@H]2CC[C@@]3(C)[C@@H](CC[C@@]34CCC(=O)O4)[C@H]12 [spironoloactone]
effect on the antihyperalgesic action of sEHI AEPU [1]: did not have any impact

CC/C(=C(\c1ccccc1)c1ccc(OCCN(C)C)cc1)c1ccccc1 [tamoxifen]
effect on the antihyperalgesic action of sEHI AEPU [1]: did not have any impact
